Data as given in patent US20260258010A1, “THIOPHENE-2-CARBOXYLIC ACID DERIVATIVE, AND PREPARATION METHOD THEREFOR AND MEDICAL USE THEREOF” (CHINA PHARMACEUTICAL UNIVERSITY, priority 2023, published 2026).

How the values were obtained:
acute peritonitis model = assay: LPS-induced acute peritonitis model, inflammatory factors in peritoneal fluids; format: in vivo; details: 5, 10 and 20 mg/kg by intraarticular injection, male ICR mice, 6 h after injection, vs model control, FIGS. 6-8
Protocol: Male clean-grade ICR mice were housed with free access to water and food, and with illumination for 12 h every day at an ambient temperature of 25±2° C. The animals were divided into several groups, that is, a normal control group, a model control group, and administration groups (test compound and dexamethasone). An acute peritonitis model was induced by a single intraperitoneal injection of LSP, while an equal volume of physiological saline was injected into the joint cavity in the normal control group. Each administration group was given test compound 5 (5 mg/kg, 10 mg/kg, and 20 mg/kg) and dexamethasone (10 mg/kg) by intraarticular injection. 6 h after the injection, 8 mL of PBS was injected, and the peritoneal cavity fluids were collected.

P2Y14 receptor = biological target: T1, P2Y14 receptor (Homo sapiens, UniProt Q15391); assay: cAMP inhibition assay in HEK293 cells stably transfected with the P2Y14 receptor (UDPG-stimulated, cAMP Glo); format: cell-based; details: 100 nM compound; HEK293 stably transfected with P2Y14 receptor; 30 μM Forskolin, 1 μM UDPG, 4 h; inhibition rate from cAMP content; read-out: Inhibition @ 100 nM
T1 construct: expressed in transfected cells; host or cells: HEK293
T1 sequence (Q15391 1-338): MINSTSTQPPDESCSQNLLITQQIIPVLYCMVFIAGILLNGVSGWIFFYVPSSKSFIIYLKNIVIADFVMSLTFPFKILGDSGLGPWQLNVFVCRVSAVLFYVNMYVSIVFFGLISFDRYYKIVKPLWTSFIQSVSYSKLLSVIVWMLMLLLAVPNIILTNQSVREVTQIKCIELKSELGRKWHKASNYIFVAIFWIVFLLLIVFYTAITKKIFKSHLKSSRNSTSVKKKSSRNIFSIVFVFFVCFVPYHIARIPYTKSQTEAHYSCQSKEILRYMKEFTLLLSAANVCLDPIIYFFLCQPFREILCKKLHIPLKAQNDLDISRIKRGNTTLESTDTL
Protocol: An HEK293 cell strain stably transfected with the P2Y14 receptor was cultured in a DMEM culture medium (containing […], 100 U/mL penicillin, and 100 μg/mL streptomycin). Before the experiment, the cells were seeded into a culture plate at a density of 1×10^5 cells/well, and a serum-free culture medium was used instead. The cells were cultured at 37° C. with […] and 5% CO2 humidity. IBMX was added to inhibit the activity of PDEs, thereby ensuring a relatively high level of cAMP. The AC agonist Forskolin (30 μM) was adopted to stimulate the production of cellular cAMP. Test compounds at different concentrations (0.01 nm, 0.1 nm, 1 nm, 10 nm, and 100 nm) were added in advance, and PPTN was used as a positive control. Subsequently, 1 μM P2Y14 receptor agonist UDPG was added, and after 4 h, the content of intracellular cAMP was measured using a cAMP Glo™ Assay kit (PROMEGA Co. Ltd., USA). The inhibition rate was calculated based on the cAMP content.

[1] = system: IL-1β in the supernatant of the THP-1 cell culture medium; assay: IL-1β ELISA in supernatant of LPS/ATP-stimulated THP-1 cell culture medium; format: cell-based, Human; details: PPTN 5 μM, PMA-differentiated THP-1, LPS 100 ng/mL + ATP 5 mM, FIG. 5
Protocol: Human THP-1 cells were cultured in an RPMI-1640 culture medium (containing 10% fetal bovine serum, 100 U/mL penicillin, and 100 μg/mL streptomycin) and seeded into a culture plate at a density of 1×10^5 cells/well before the experiment. The cells were cultured at 37° C. with 95% 02 and 5% CO2 humidity. Before the experiment, PMA was added at 100 ng/mL to each well, and the cells were incubated for 24 h to induce the differentiation of the THP-1 cells into macrophages. Test compound 5 (2.5 μM, 5 μM, and 10 μM) and PPTN (5 μM) were added to the culture medium in advance for intervention. After 1 h, LPS at a final concentration of 100 ng/mL was added to the cells. After 3 h, ATP at a final concentration of 5 mM was added. After 1 h, the indexes were determined as follows:
The level of IL-1β in the supernatant of the cell culture medium was detected by an ELISA kit (Shenzhen NeoBioscience Technology Co., Ltd.), and the results are shown in FIG. 5.

Row | inhibition at 0.1 µM (P2Y14 receptor) | Structure (SMILES) | gene expression levels of inflammatory factors in mouse peritoneal fluids (acute peritonitis model) | level of IL-1β in the supernatant of the cell culture medium [1]
1 | 99.4% | Cc1ccc(C(=O)Nc2cc(C(=O)O)sc2Oc2ccc(C)nc2)cc1 [Compound 5, 5-((6-methylpyridin-3-yl)oxy)-4-(4-methylbenzamido)thiophene-2-carboxylic acid] | down-regulate the gene expression levels of inflammatory factors to different degrees | 
2 |  | O=C(O)c1cc(-c2ccc(C3CCNCC3)cc2)c2ccc(-c3ccc(C(F)(F)F)cc3)cc2c1 [PPTN] |  | showed an expected effect
